According to PubChem BioAssay AID248 (DTP/NCI, 2004):
“And” between values parts separate entries of the source, which are not always exact repeats. Equal values may be shown once. Inconclusive results and toxic doses are left out. No stated cut-off is given here; in the data, active means T/C of 150% or more; inactive means T/C below 125%. Square brackets hold non-standard residues; d marks the D form. Peptide text beside a SMILES is read from it. ξ: configuration not given here. ξE = NC(CCC(=O)O)C(=O)O

Test system: L1210 leukemia ip in BDF1 mice, survival T/C
Experiment: NCI In Vivo Anticancer Drug Screen. Data for tumor model L1210 Leukemia (intraperitoneal) in B6D2F1 (BDF1) mice
Conditions: endpoint: mean survival time, higher = longer survival
Summary of the method: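 In this screen, tumor-bearing mice given compound are compared to those given vehicle, and their survival values are reported as a treated-to-control quotient.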

[1] = dose: 100.0 mg/kg/injection, schedule: Q04DX002 (ip), vehicle: Klucel (hydroxypropylcellulose) (HPC)
[2] = dose: 200.0 mg/kg/injection, schedule: Q04DX002 (ip), vehicle: Klucel (hydroxypropylcellulose) (HPC)
[3] = dose: 400.0 mg/kg/injection, schedule: Q04DX002 (ip), vehicle: Klucel (hydroxypropylcellulose) (HPC)
[4] = dose: 100.0 mg/kg/injection, schedule: Q04DX002 (ip), vehicle: saline with Tween-80
[5] = dose: 200.0 mg/kg/injection, schedule: Q04DX002 (ip), vehicle: saline with Tween-80
[6] = dose: 400.0 mg/kg/injection, schedule: Q04DX002 (ip), vehicle: saline with Tween-80
[7] = dose: 100.0 mg/kg/injection, schedule: Q01DX001 (ip), vehicle: carboxymethylcellulose (CMC)
[8] = dose: 200.0 mg/kg/injection, schedule: Q01DX001 (ip), vehicle: carboxymethylcellulose (CMC)
[9] = dose: 100.0 mg/kg/injection, schedule: Q01DX009 (ip), vehicle: Klucel (hydroxypropylcellulose) (HPC)
[10] = dose: 200.0 mg/kg/injection, schedule: Q01DX009 (ip), vehicle: Klucel (hydroxypropylcellulose) (HPC)
[11] = dose: 25.0 mg/kg/injection, schedule: Q01DX009 (ip), vehicle: saline
[12] = dose: 25.0 mg/kg/injection, schedule: Q04DX003 (ip), vehicle: saline
[13] = dose: 50.0 mg/kg/injection, schedule: Q01DX009 (ip), vehicle: saline
[14] = dose: 50.0 mg/kg/injection, schedule: Q04DX003 (ip), vehicle: saline
[15] = dose: 100.0 mg/kg/injection, schedule: Q04DX003 (ip), vehicle: saline

Measured: T/C

c1ccc(Cc2ccccc2)cc1
inactive: [1] 101 % of control | [2] 105 % of control | [3] 92 % of control

CCOc1nc(N)nc(N)c1-c1ccccc1
inactive: [4] 111 % of control | [5] 96 % of control | [6] 100 % of control

CCCCCCC(C)N(CC)CCOC(=O)c1ccc(N)cc1 (stereo unspecified)
inactive: dose: 75.0 mg/kg/injection, schedule: Q01DX001 (ip), vehicle: other 94 % of control | dose: 150.0 mg/kg/injection, schedule: Q01DX001 (ip), vehicle: other 98 % of control

NCC(=O)NC(CCC(=O)O)C(=O)O (stereo unspecified) (H-Gly-[ξE]-OH)
inactive: dose: 50.0 mg/kg/injection, schedule: Q04DX002 (ip), vehicle: saline 89 % of control | dose: 100.0 mg/kg/injection, schedule: Q04DX002 (ip), vehicle: saline 104 % of control | dose: 200.0 mg/kg/injection, schedule: Q04DX002 (ip), vehicle: saline 93 % of control

CN1C2CCC1CC(OC(=O)c1ccccc1)C2 (stereo unspecified)
inactive: dose: 25.0 mg/kg/injection, schedule: Q04DX002 (ip), vehicle: saline with Tween-80 94 % of control | dose: 50.0 mg/kg/injection, schedule: Q04DX002 (ip), vehicle: saline with Tween-80 105 % of control | [4] 94 % of control

NCC1CCCC1N (stereo unspecified)
inactive: dose: 18.8 mg/kg/injection, schedule: Q01DX009 (ip), vehicle: saline 102 % of control | dose: 37.5 mg/kg/injection, schedule: Q01DX009 (ip), vehicle: saline 102 % of control | dose: 75.0 mg/kg/injection, schedule: Q01DX009 (ip), vehicle: saline 97 % of control

Cc1ccc(NC(=O)Oc2cc(=O)oc3ccccc23)c([N+](=O)[O-])c1
inactive: dose: 100.0 mg/kg/injection, schedule: Q04DX003 (ip), vehicle: Klucel (hydroxypropylcellulose) (HPC) 89 % of control | dose: 200.0 mg/kg/injection, schedule: Q04DX003 (ip), vehicle: Klucel (hydroxypropylcellulose) (HPC) 94 % of control | dose: 400.0 mg/kg/injection, schedule: Q04DX003 (ip), vehicle: Klucel (hydroxypropylcellulose) (HPC) 96 % of control

O=C(O)/C=C/[P+](c1ccccc1)(c1ccccc1)c1ccccc1
inactive: dose: 5.0 mg/kg/injection, schedule: Q01DX001 (ip), vehicle: saline 101 % of control | dose: 10.0 mg/kg/injection, schedule: Q01DX001 (ip), vehicle: saline 106 % of control | dose: 20.0 mg/kg/injection, schedule: Q01DX001 (ip), vehicle: saline 101 % of control

O=C(O)c1ccc([N+](=O)[O-])cc1O
inactive: [7] 101 % of control | [4] 95 % of control | [8] 97 % of control | [5] 98 % of control | [6] 102 % of control

O=S(=O)(Cc1ccccc1)CS(=O)(=O)Cc1ccccc1
inactive: dose: 75.0 mg/kg/injection, schedule: Q04DX003 (ip), vehicle: saline 92 % of control | dose: 100.0 mg/kg/injection, schedule: Q04DX003 (ip), vehicle: saline with Tween-80 106 % of control | dose: 150.0 mg/kg/injection, schedule: Q04DX003 (ip), vehicle: saline 90 % of control | dose: 200.0 mg/kg/injection, schedule: Q04DX003 (ip), vehicle: saline with Tween-80 112 % of control | dose: 300.0 mg/kg/injection, schedule: Q04DX003 (ip), vehicle: saline 87 % of control | dose: 400.0 mg/kg/injection, schedule: Q04DX003 (ip), vehicle: saline with Tween-80 98 % of control

O=C(CC(C[N+](=O)[O-])c1ccccc1)c1ccccc1 (stereo unspecified)
inactive: [1] 96 % of control | [2] 100 % of control | [3] 96 % of control

CC(C)CCCC(C)CCCC(C)CCCC(C)CC(=O)O (stereo unspecified)
inactive: dose: 100.0 mg/kg/injection, schedule: Q01DX001 (ip), vehicle: olive oil, sesame oil, peanut oil 103 % of control | dose: 200.0 mg/kg/injection, schedule: Q01DX001 (ip), vehicle: olive oil, sesame oil, peanut oil 101 % of control | dose: 400.0 mg/kg/injection, schedule: Q01DX001 (ip), vehicle: olive oil, sesame oil, peanut oil 91 % of control

Cc1cccc(C)c1NC(=O)Nc1ccc(C(=O)O)c(O)c1
inactive: [9] 110 % of control | [10] 95 % of control | dose: 400.0 mg/kg/injection, schedule: Q01DX009 (ip), vehicle: Klucel (hydroxypropylcellulose) (HPC) 97 % of control

S=c1cc[nH]c2[nH]ncc12
inactive: dose: 100.0 mg/kg/injection, schedule: Q04DX002 (ip), vehicle: DMSO 94 % of control | dose: 200.0 mg/kg/injection, schedule: Q04DX002 (ip), vehicle: DMSO 97 % of control

CCCCC(SC(CC)(C(C)=O)c1ccccc1)C(N)=O (stereo unspecified)
inactive: [7] 102 % of control | [8] 113 % of control | dose: 400.0 mg/kg/injection, schedule: Q01DX001 (ip), vehicle: carboxymethylcellulose (CMC) 96 % of control

CC(SS(=O)(=O)O)C(N)=NCc1ccccc1 (stereo unspecified)
inactive: dose: 25.0 mg/kg/injection, schedule: Q04DX002 (ip), vehicle: Klucel (hydroxypropylcellulose) (HPC) 94 % of control | dose: 50.0 mg/kg/injection, schedule: Q04DX002 (ip), vehicle: Klucel (hydroxypropylcellulose) (HPC) 108 % of control | [1] 98 % of control

NCCC(=O)OC1CCCc2c(O)c3c(c(O)c21)C(=O)c1ccccc1C3=O (stereo unspecified)
inactive: dose: 12.5 mg/kg/injection, schedule: Q04DX003 (ip), vehicle: saline 93 % of control | [11] 93 % of control | [12] 95 % of control | [13] 97 % of control | [14] 98 % of control | [15] 102 % of control

Cc1ccccc1NC(=O)Oc1ccc2c(C)cc(=O)oc2c1
inactive: [9] 103 % of control | [10] 100 % of control

COC(=O)c1nc(-c2ccc3c(n2)C(=O)C(N)=C(OC)C3=O)c(N)c(-c2ccc(OC)c(OC)c2O)c1C
inactive: dose: 0.5 mg/kg/injection, schedule: Q01DX015 (ip), vehicle: water 116 % of control | dose: 1.0 mg/kg/injection, schedule: Q01DX001 (ip), vehicle: water 110 % of control | dose: 1.0 mg/kg/injection, schedule: Q01DX015 (ip), vehicle: water 119 % of control | dose: 2.0 mg/kg/injection, schedule: Q01DX001 (ip), vehicle: water 109 % of control | dose: 2.0 mg/kg/injection, schedule: Q01DX015 (ip), vehicle: water 98 % of control | dose: 3.0 mg/kg/injection, schedule: Q01DX001 (ip), vehicle: carboxymethylcellulose (CMC) 104 % of control | dose: 6.0 mg/kg/injection, schedule: Q01DX001 (ip), vehicle: carboxymethylcellulose (CMC) 110 % of control | dose: 12.0 mg/kg/injection, schedule: Q01DX001 (ip), vehicle: carboxymethylcellulose (CMC) 105 % of control | dose: 24.0 mg/kg/injection, schedule: Q01DX001 (ip), vehicle: carboxymethylcellulose (CMC) 104 % of control | dose: 48.0 mg/kg/injection, schedule: Q01DX001 (ip), vehicle: carboxymethylcellulose (CMC) 105 % of control

CC1C2CCC(C2)C1N (stereo unspecified)
inactive: [11] 96 % of control | [12] 94 % of control | [13] 104 % of control | [14] 105 % of control | dose: 100.0 mg/kg/injection, schedule: Q01DX009 (ip), vehicle: saline 98 % of control | [15] 112 % of control and 92 % of control and 93 % of control | dose: 200.0 mg/kg/injection, schedule: Q04DX003 (ip), vehicle: saline 93 % of control
